Source: patent US12583861B2, “Derivatives of imidazo[4,5-d]pyridazine, their preparation and their therapeutic application” (SANOFI, priority 2021, dated 2026)

Experiments:
Assay type in all cases: cell-based
human TLR7 = molecular target: T1, human TLR7 (Homo sapiens, UniProt Q9NYK1); assay: HEK-Blue hTLR7 reporter cell assay (SEAP, NF-kB/AP-1) for stimulation of human TLR7; conditions: HEK-Blue hTLR7 cells, 24 h incubation, SEAP readout; read-out: TLR7_EC50
T1 construct: host or cells: HEK293 (HEK-Blue hTLR7)
T1 sequence (Q9NYK1 27-1049): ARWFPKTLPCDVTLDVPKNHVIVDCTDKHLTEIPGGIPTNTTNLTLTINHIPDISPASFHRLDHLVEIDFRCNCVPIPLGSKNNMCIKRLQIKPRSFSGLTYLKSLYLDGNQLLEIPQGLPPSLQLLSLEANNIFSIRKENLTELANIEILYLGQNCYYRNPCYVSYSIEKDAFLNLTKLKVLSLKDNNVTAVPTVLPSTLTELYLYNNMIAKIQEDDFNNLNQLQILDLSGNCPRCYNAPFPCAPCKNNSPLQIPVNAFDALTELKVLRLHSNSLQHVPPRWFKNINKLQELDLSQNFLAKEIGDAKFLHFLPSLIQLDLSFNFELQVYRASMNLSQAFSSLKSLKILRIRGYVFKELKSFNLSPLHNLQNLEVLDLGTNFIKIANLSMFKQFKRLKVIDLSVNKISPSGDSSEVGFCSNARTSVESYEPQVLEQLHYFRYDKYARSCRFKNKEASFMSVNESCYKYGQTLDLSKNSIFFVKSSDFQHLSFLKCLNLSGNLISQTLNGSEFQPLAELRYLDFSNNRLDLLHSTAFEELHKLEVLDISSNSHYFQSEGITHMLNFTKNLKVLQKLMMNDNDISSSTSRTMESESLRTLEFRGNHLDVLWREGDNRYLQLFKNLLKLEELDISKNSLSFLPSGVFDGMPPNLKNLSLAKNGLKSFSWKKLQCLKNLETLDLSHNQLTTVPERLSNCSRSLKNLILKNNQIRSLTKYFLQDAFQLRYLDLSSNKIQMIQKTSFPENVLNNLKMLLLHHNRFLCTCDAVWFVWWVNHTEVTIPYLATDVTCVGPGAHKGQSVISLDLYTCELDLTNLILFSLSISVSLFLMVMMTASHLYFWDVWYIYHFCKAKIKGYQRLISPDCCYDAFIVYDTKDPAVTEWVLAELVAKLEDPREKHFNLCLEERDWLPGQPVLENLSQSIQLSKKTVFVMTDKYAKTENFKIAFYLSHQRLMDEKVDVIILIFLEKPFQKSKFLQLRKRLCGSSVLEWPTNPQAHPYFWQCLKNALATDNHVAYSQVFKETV
How it was run: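 Activity expressed as EC50 for half-maximal SEAP induction. Compounds, serially diluted 3-fold from 20 to 0.01 μM, were incubated 24 h at 37 °C, 5% CO2 with HEK-Blue hTLR7 reporter cells (3.10E4/well, plated 18–24 h earlier); supernatant developed with QUANTI-Blue.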

IFN-α2a = IFN-α2a cytokine activation in human PBMC (MSD assay); conditions: Homo sapiens, PBMC, 24 h
Method: (§1) The other below tests involving measuring the in vitro activity of some compounds of the disclosure on cytokines IFN-α2a, IL-6, IL29 and TNF-α were carried out using human PBMC (PBMCs).
(§2) The activity described below, with respect to TLR7, TLR8, IFN-α2a, IL-6, IL29 and TNF-α, is given by the half maximal effective concentration (EC50), which corresponds to the concentration required to obtain a 50% of the activation. The lower the EC50, the less the concentration of the compound is required to produce 50% of maximum activation and the higher the potency.
(§3) In Vitro Assay to Determine IFN-α2a, IL-6, IL29 and TNF-α Cytokine Activation:
(§4) Peripheral blood mononuclear cells were isolated by Ficoll density gradient centrifugation from peripheral blood samples obtained from healthy donors (EFS). Isolated PBMCs are washed twice with PBS and resuspended in RPMI-1640 medium supplement with 10% fetal bovine serum (FBS) at 5.10^5 cells/well in a 96-well plate. The cells were then incubated with the compounds to test at various doses (20 μM to 4.8.10-6 μM final) for 24 h at 37° C., 5% CO2. After 24 h treatment, the plates are centrifuged and the supernatant were collected and assayed for cytokines IFN-α2a, IL-6, IL29 and TNF-α using the Meso Scale Discovery (MSD) assay platform according to the manufacturer's instructions. Briefly, 25 μL of cell culture supernatants were incubated for 1 h at Room Temperature (RT) in custom Multi-Spot 96-well plates prior coated with capture antibodies. After washing, SULFO-TAG® labeled detection antibodies were added to each of the wells and incubated for 1 h RT before adding a read buffer.

IL-6 = IL-6 cytokine activation in human PBMC (MSD assay); conditions: Homo sapiens, PBMC, 24 h, read-out: IL6 EC50
Method: as §1, §2, §3, §4

IL29 = IL29 cytokine activation in human PBMC (MSD assay); conditions: Homo sapiens, PBMC, 24 h
Method: as §1, §2, §3, §4

TNF-α = TNF-α cytokine activation in human PBMC (MSD assay); conditions: Homo sapiens, PBMC, 24 h
Method: as §1, §2, §3, §4

| EC50 (human TLR7) [µM] | EC50 (IFN-α2a) [µM] | EC50 (IL-6) [µM] | EC50 (IL29) [µM] | EC50 (TNF-α) [µM] | Structure (SMILES) |
| --- | --- | --- | --- | --- | --- |
| 0.116 | 0.036 | 0.075 | 0.028 | 0.655 | CCCCc1nc2c(N)nnc(OC(C)C)c2n1Cc1ccc(C=O)cc1 [Compound 34, 4-((4-amino-2-butyl-7-isopropoxy-1H-imidazo[4,5-d]pyridazin-1-yl)methyl)benzaldehyde] |
| 0.219 | 0.018 | 0.106 | 0.02 | 0.708 | CCCCc1nc2c(N)nnc(-c3cc[nH]c3)c2n1Cc1ccc(OC)cc1 [Compound 14, 2-butyl-1-(4-methoxybenzyl)-7-(1H-pyrrol-3-yl)-1H-imidazo[4,5-d]pyridazin-4-amine] |
